Laboratory results taken from US10561702B2, “Method for the treatment of skin disorders using dipeptide diaminobutyroyl benzylamide diacetate” (DSM IP ASSETS B.V., priority 2015, dated 2020).
Values joined by “and” are separate entries in the source; they are usually repeats but may differ in a detail not shown here. Equal values may be shown once.

Tests used:
human sebaceous glands = experiment: Ex vivo assay with sebaceous glands (organ culture, total lipid quantification); format: cell-based; details: day 6; for Total fat quantification, Average (1-12): average of 12 SG test samples, untreated 17.5
Source text: 2. Ex Vivo Assay with Sebaceous Glands (SG)
Organ culture of human sebaceous glands has been performed in order to verify the modulatory activity of H-(beta-Ala)-Pro-Dab-NH-benzyl on sebum secretion. A viability test has been performed in parallel. Human sebaceous glands from skin sample od labia minora have been used (donor). The epidermis of the full thickness sample has been carefully removed and the sebaceous glands have been micro-dissected.
The sebaceous glands have been pooled in groups of eight and cultured up to day 6. SGs are cultured in 24 well plate immersed in 500 μl of SGs medium (modified Williams'E medium). After 24 hours the culture medium has been changed and substituted with the medium containing the substance to be tested. The medium has been renewed at day 3 and 5 of culture. At day 6 the glands have been collected and used for the quantification of lipids and proteins. Briefly the SGs have been homogenized in isopropyl alcohol (IPOH) in order to extract lipids and let the protein undissolved. An aliquot of IPOH has been withdrawn to measure the lipids whereas the rest has been evaporated in a vacuum centrifuge. The remaining dry pellet has been minced again in presence of protein lysis buffer. The lipids dissolved in IPOH and the protein dissolved in the lysis buffer have been quantified by infrared spectroscopy (Millipore Direct Detect). The total lipid amount has been obtained by normalizing the quantified lipids upon the quantified proteins (i.e. mg of lipids/mg of proteins).

DPP4 = target: T1, DPP4 (Homo sapiens, UniProt P27487); experiment: Dipeptidyl Peptidase 4 (DPP4) protease assay (DPP4 Drug Discovery Kit, fluorogenic substrate H-Gly-Pro-AMC); format: biochemical; details: for DPP4 activity: % activity remaining
T1 construct: purchased Enzo Life Sciences
Description: 1. Dipeptiyl Peptidase 4 (DPP4) Protease Assay Method
The potential of H-(beta-Ala)-Pro-Dab-NH-benzyl [CAS 823202-99-9], respectively N-Pal-Gly-His-Lys [147732-56-7]/N-Pal-Gly-Gln-Pro-Arg [221227-05-0] (2:1) to inhibit DPP4 was tested using the DPP4 Drug Discovery Kit from Enzo Life Sciences. In brief: DPP4 is pre-incubated for 10 minutes with inhibitors and then added to a quenched fluorogenic substrate (H-Gly-Pro-AMC). Cleavage of the AMC-moiety from the c-terminus of the peptide substrate by DPP4 increases its fluorescence intensity at 460 nm. The AMC signal is then recorded using a fluorescence microplate reader at Ex/Em=380/460 every minute for a total time of 20 min. A “best fit” line is generated with the data points of the first 10-20 min and the slope calculated. The remaining activity in the presence of inhibitor was calculated as follows: % activity remaining (with inhibitor)=(slope of inhibitor-sample/slope of control-sample)*100.

T1 sequence (P27487 whole entry): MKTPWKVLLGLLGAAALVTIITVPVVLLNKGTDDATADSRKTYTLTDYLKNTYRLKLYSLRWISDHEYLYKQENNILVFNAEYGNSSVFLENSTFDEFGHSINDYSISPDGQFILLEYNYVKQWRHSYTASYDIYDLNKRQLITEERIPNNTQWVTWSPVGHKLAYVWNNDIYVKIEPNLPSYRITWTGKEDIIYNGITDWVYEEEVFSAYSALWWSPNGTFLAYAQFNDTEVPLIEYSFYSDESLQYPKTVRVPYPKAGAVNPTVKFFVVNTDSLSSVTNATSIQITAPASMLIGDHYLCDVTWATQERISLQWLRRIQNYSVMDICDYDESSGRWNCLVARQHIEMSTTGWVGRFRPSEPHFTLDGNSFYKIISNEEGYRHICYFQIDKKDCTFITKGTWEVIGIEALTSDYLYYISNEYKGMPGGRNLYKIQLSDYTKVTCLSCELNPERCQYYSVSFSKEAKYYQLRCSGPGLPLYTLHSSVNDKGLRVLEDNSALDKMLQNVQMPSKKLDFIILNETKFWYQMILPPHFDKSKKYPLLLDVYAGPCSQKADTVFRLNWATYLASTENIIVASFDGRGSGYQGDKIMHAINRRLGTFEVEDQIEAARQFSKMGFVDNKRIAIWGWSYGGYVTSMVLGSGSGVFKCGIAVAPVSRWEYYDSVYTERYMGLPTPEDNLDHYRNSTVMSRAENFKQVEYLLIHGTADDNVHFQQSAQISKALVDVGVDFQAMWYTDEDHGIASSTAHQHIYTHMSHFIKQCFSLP

Which “Total fat quantification, Average (1-12)” value (human sebaceous glands; 5 μM) does the source give for `COc1cc(CNC(=O)CCCC/C=C/C(C)C)ccc1O` [Capsaicin] here?
The value was 15.5 mg lipid/mg protein.

And the Total fat quantification (human sebaceous glands; 5 μM, single SG test samples 1-12)?
The Total fat quantification was 15.8 mg lipid/mg protein and 15.7 mg lipid/mg protein and 15.5 mg lipid/mg protein and 15.6 mg lipid/mg protein and 15.4 mg lipid/mg protein and 15.3 mg lipid/mg protein and 15.1 mg lipid/mg protein.

For H-(beta-Ala)-Pro-Dab-NH-benzyl, which DPP4 activity (DPP4; 0.77 ppm / 1.56 μM) is on record?
Its DPP4 activity is 74%.

What about the DPP4 activity (DPP4; 1.55 ppm / 3.13 μM) of the same molecule?
Its DPP4 activity is 58%.

And the DPP4 activity (DPP4; 3.10 ppm / 6.25 μM)?
The DPP4 activity was 40%.

What about the DPP4 activity (DPP4; 6.19 ppm / 12.50 μM) of the same molecule?
The DPP4 activity was 24%.

What about the DPP4 activity (DPP4; 12.39 ppm / 25.00 μM) of the same molecule?
The DPP4 activity was 14%.

What about the DPP4 activity (DPP4; 24.78 ppm / 50.00 μM) of the same molecule?
Its DPP4 activity is 7%.

And the DPP4 activity (DPP4; 49.55 ppm / 100.00 μM)?
The DPP4 activity was 4%.

What about the DPP4 activity (DPP4; 99.10 ppm / 200.00 μM) of the same molecule?
The DPP4 activity was 2%.

What about the “Effect on DPP4 (in words)” value (DPP4; summary of tables 1 and 2) of the same molecule?
The value was “capable to inhibit DPP4”.

What about the “Total fat quantification, Average (1-12)” value (human sebaceous glands; 10 μM) of the same molecule?
Its value is 14.2 mg lipid/mg protein.
